Data reported in US10662193B2, “Carbazole and carboline compounds for use in the diagnosis, treatment, alleviation or prevention of disorders associated with amyloid or amyloid-like proteins” (AC IMMUNE SA, priority 2014, dated 2020).

System: tau tangles/Aβ plaques on AD brain sections
Test: Assay 1: direct staining of human Alzheimer's disease brain sections (fluorescence)
Format: binding
Design: key to Direct staining of tau tangles/Aβ plaques on AD brain sections at 100 μM / Direct staining of tau tangles on AD brain sections at 100 μM / Direct staining of Aβ plaques on AD brain sections at 100 μM / Direct staining of tau tangles on AD brain sections (footnote a: at 250 μM): − (No); +++ (strong); ++ (good); + (weak)
Method: Assay 1 (Fluorescence Based Assay):
Direct Binding of Compounds of this Invention to Human Alzheimer's Disease Brain Sections and/or Displacement of RefA and Compound B
Frozen sections with a thickness of […] from the amygdala of donors diagnosed with Braak stage V-VI Alzheimer's Disease (Braak, H.; Braak, E. Acta Neuropathol., 1991, 82, 239-259), were purchased from a commercial provider (Tissue Solutions) and kept at −80° C. until use.
Direct Staining of Human Alzheimer's Disease Brain Sections
Brain sections were encircled with pap pen liquid blocker to reduce the volume of solution for the different incubations. Sections were fixed for 15 min at 4° C. with 4% paraformaldehyde and washed three times 5 minutes with PBS at room temperature. […] To reduce the auto-fluorescence of the tissue, the sections were incubated in a solution of 0.1% Sudan Black (Sigma 199664) in 70% ethanol for 15 min at room temperature in the dark, washed four times for 5 minutes with PBS, and mounted using ProLong Gold Antifade reagent (Invitrogen P36930). Sections were then analyzed on the Nikon Eclipse Ti microscope to detect staining and imaged using Nikon DS-Fi2 camera and NIS-Element AR4.13.1 software.

[1] = 100 μM compound, human AD brain sections, fluorescence, cell does not say tangles or plaques

Row | SMILES | Direct staining of Aβ plaques on AD brain sections at 100 μM (100 μM compound) | Direct staining of tau tangles on AD brain sections at 100 μM (100 μM compound) | also measured
1 | Cn1c2c(c3ccc(Nc4ccc(F)c(F)c4)nc31)C(=O)N(CCCN)CC2 [213 Step F] |  |  | Direct staining of tau tangles/Aβ plaques on AD brain sections at 100 μM (100 μM in 50% ethanol, 20 min, "(tangles)" beside the symbol = tangles stained): −
2 | COc1ccc(/C=C/c2ccc3nc(N4CCOCC4)sc3c2)cc1 [Compound B, reference compound] |  |  | Direct staining of Aβ plaques on AD brain section (100 μM, FIG. 2): Direct staining of Aβ plaques
3 | Cn1c2ccncc2c2ccc(Nc3ccc(F)cc3)nc21 [Example 18] |  |  | Direct staining of tau tangles/Aβ plaques on AD brain sections at 100 μM [1]: −
4 | Cn1c2ccncc2c2ccc(Nc3ccc(OCCF)cc3)nc21 [Example 20] | + (plaques) |  | 
5 | Cn1c2ccncc2c2ccc(Nc3ccc(C#N)c(OCCF)c3)nc21 [Example 21] |  |  | Direct staining of tau tangles/Aβ plaques on AD brain sections at 100 μM [1]: −
6 | Cn1c2ccncc2c2ccc(Nc3ccc(F)nc3)nc21 [Example 22] | + (tangles) + (plaques | + (tangles) + (plaques | 
7 | COc1cc(Nc2ccc3c4cnccc4n(C)c3n2)ccn1 [Example 24] | + (plaques) |  | 
8 | Cn1c2ccncc2c2ccc(N3CCN(c4ccc(F)cc4)CC3)nc21 [Example 25] | + (tangles) + (plaques) | + (tangles) + (plaques) | 
9 | CN(CCF)c1cccc(Nc2ccc3c4cnccc4n(C)c3n2)c1 [Example 26] | +++ (plaques) |  | 
10 | Fc1ccc(Nc2ccc3c(n2)[nH]c2ccncc23)cc1F [Example 27] | + (tangles) + (plaques) | + (tangles) + (plaques) | 
11 | Cn1c2ccncc2c2ccc(Nc3cncc(F)c3)nc21 [Example 29] |  | + (tangles) | 
12 | COc1ccc(Nc2ccc3c4cnccc4n(C)c3n2)cc1F [Example 30] | + (tangles) + (plaques) | + (tangles) + (plaques) | 
13 | COc1cc(Nc2ccc3c4cnccc4n(C)c3n2)ccc1F [Example 31] | + (tangles) + (plaques) | + (tangles) + (plaques) | 
14 | Cn1c2ccncc2c2ccc(Nc3cccc(N4CC(F)C4)c3)nc21 [Example 32] | + (tangles) + (plaques) | + (tangles) + (plaques) | 
15 | Cn1c2ccncc2c2ccc(Nc3cccc(N4CCC(F)CC4)c3)nc21 [Example 33] | + (tangles) + (plaques) | + (tangles) + (plaques) | 
16 | Cc1ccc(Nc2ccc3c4cnccc4n(C)c3n2)cc1OCCF [Example 34] |  | +++ (tangles) | 
17 | Cn1c2ccncc2c2ccc(Nc3cccc(C(F)F)c3)nc21 [Example 35] | ++ (tangles) ++ (plaques) | ++ (tangles) ++ (plaques) | 
18 | Cc1ccc(Nc2ccc3c4cnccc4n(C)c3n2)cc1OC(F)F [Example 36] | + (plaques) |  | 
19 | Fc1ccc(Nc2ccc3c(c2)[nH]c2ccncc23)cc1F [Example 37] |  | + (tangles) | 
20 | Cn1c2ccncc2c2ccc(Nc3ccc(F)c(F)c3)cc21 [Example 39] |  | ++ (tangles) | 
21 | CN(C)c1cc(Nc2ccc3c4cnccc4n(C)c3n2)ccc1F [Example 41] |  |  | Direct staining of tau tangles/Aβ plaques on AD brain sections at 100 μM [1]: −
22 | CNc1cc(Nc2ccc3c4cnccc4n(C)c3n2)ccc1F [Example 42] | +++ (plaques) |  | 
23 | Cn1c2ccncc2c2ccc(Nc3cccc(SCCF)c3)nc21 [Example 43] | + (tangles) + (plaques) | + (tangles) + (plaques) | 
24 | Cc1nn(CCF)c(C)c1Nc1ccc2c3cnccc3n(C)c2n1 [Example 49] |  | + (tangles) | 

Row | SMILES | Direct staining of Aβ plaques on AD brain sections at 100 μM (100 μM compound) | Direct staining of tau tangles on AD brain sections at 100 μM (100 μM compound) | also measured
25 | Cn1c2ccncc2c2ccc(Nc3ccc(OCCF)nc3)nc21 [Example 50] | + (tangles) + (plaques) | + (tangles) + (plaques) | 
26 | Cn1c2ccncc2c2ccc(Nc3cccc(OCCOCCF)n3)nc21 [Example 56] |  | ++ (tangles) | 
27 | Cn1c2ccncc2c2ccc(Nc3ccc(F)c(OCCF)c3)nc21 [Example 57] |  | ++ (tangles) | 
28 | Cn1c2ccncc2c2ccc(Nc3ccnc(OCCF)c3)nc21 [Example 58] | +++ (plaques) |  | 
29 | Cn1c2ccncc2c2ccc(Nc3cccc(OCCOCCOCCF)n3)nc21 [Example 60] | ++ (tangles) ++ (plaques) | ++ (tangles) ++ (plaques) | 
30 | Cn1c2ccncc2c2ccc(Nc3ncc(C#N)s3)nc21 [Example 61] |  |  | Direct staining of tau tangles/Aβ plaques on AD brain sections at 100 μM [1]: −
31 | Cn1c2ccncc2c2ccc(Nc3ccc(OCCF)cn3)nc21 [Example 62] |  | + (tangles) | 
32 | Cn1c2ccncc2c2ccc(Nc3csc(OCCF)n3)nc21 [Example 69] |  | ++ (tangles) | 
33 | Cn1c2ccncc2c2ccc(Nc3cccc(NCCF)c3)nc21 [Example 71] | + (tangles) + (plaques) | + (tangles) + (plaques) | 
34 | Cn1c2ccncc2c2ccc(Nc3ccc(NCCF)cn3)nc21 [Example 79] |  |  | Direct staining of tau tangles/Aβ plaques on AD brain sections at 100 μM [1]: −
35 | CN1CCc2c(c3ccc(Nc4cccc(NCCF)n4)nc3n2C)C1=O [Example 81] |  |  | Direct staining of tau tangles/Aβ plaques on AD brain sections at 100 μM [1]: −
36 | Cn1c2c(c3ccc(Nc4ccc(NCCF)cn4)nc31)C(=O)NCC2 [Example 82] |  | + (tangles) | 
37 | CN1CCc2c(c3ccc(Nc4ccc(NCCF)cn4)nc3n2C)C1=O [Example 83] |  | + (tangles) | 
38 | CN1CCc2c(c3ccc(Nc4cccc(NCCF)c4)nc3n2C)C1=O [Example 84] |  |  | Direct staining of tau tangles/Aβ plaques on AD brain sections at 100 μM [1]: −
39 | Cn1c2ccncc2c2ccc(Nc3cncc(OCCCF)c3)nc21 [Example 97] |  | +++ (tangles) | 
40 | Cn1c2ccncc2c2ccc(Nc3ccc(F)c([N+](=O)[O-])c3)nc21 [Example 98] |  |  | Direct staining of tau tangles/Aβ plaques on AD brain sections at 100 μM [1]: −
41 | Cn1c2ccncc2c2ccc(Nc3ccc([N+](=O)[O-])c(F)c3)nc21 [Example 99] |  |  | Direct staining of tau tangles/Aβ plaques on AD brain sections at 100 μM [1]: −
42 | Cn1c2ccncc2c2ccc(Nc3cc(CCF)ccn3)nc21 [Example 148] |  | ++ (tangles) | 
43 | Cn1c2ccncc2c2ccc(Nc3cccc(CCF)n3)nc21 [Example 149] |  | ++ (tangles) | 
44 | Cn1c2ccncc2c2ccc(N3CCC[C@H](F)C3)nc21 [Example 158] |  | ++ (tangles) | 
45 | Cn1c2ccncc2c2ccc(N3CC[C@H](F)C3)nc21 [Example 160] |  |  | Direct staining of tau tangles/Aβ plaques on AD brain sections at 100 μM [1]: −
46 | Cn1c2cccnc2c2ccc(Nc3cccc(OCCF)c3)nc21 [Example 163] |  | ++ (tangles) | 
47 | FCCN(c1ccc(F)c(F)c1)c1ccc2c3cnccc3n(CCF)c2n1 [Example 164] | + (plaques) |  | 
